In the supplement of paper PMC10307832 one finds relative viability data, which are given here for four cell lines.

What all share (test): relative viability (nuclei count vs DMSO), 5 days (fraction); higher = more cells survive
Compound in test [1]: Cc1ccc(C(=O)N(CCCN)[C@@H](c2nc3cc(Cl)ccc3c(=O)n2Cc2ccccc2)C(C)C)cc1 [Ispinesib]
In short, it runs like this: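 Cells of lung cancer lines were placed in 1536-well plates and kept overnight at 37 °C. Pinning then delivered five library-drug doses (not always all listed), spaced by √10, onto plates anchored with vehicle, and the cells were left 5 days without changing medium. One step fixed, permeabilised and stained them with Hoechst, and MetaXpress counted nuclei in 4× images. Viability, as a median over plates, is treated-well nuclei divided by vehicle-well nuclei, with acceptance only at control CV below 25% and at least one doubling.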

Compound in test [2]: C[C@]1(O)C[C@@H](c2nc(-c3ccc4ccc(-c5ccccc5)nc4c3)c3c(N)nccn32)C1 [Linsitinib] + CC1(C)CCC(c2ccc(Cl)cc2)=C(CN2CCN(c3ccc(C(=O)NS(=O)(=O)c4ccc(N[C@H](CCN5CCOCC5)CSc5ccccc5)c(S(=O)(=O)C(F)(F)F)c4)cc3)CC2)C1 [Navitoclax] (partner 0.5 µM)
The method in brief:
(§1)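 Relative viability is defined as nuclei in treated wells over nuclei in vehicle wells. Duplicate plates were run and medians reported. Lung cancer cell lines in 1536-well plates were dosed by pin tool one day after seeding, with one drug or with a fixed anchor-drug dose plus five library-drug doses (not always all listed) in √10 steps, and nuclei were counted after 5 days.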

Compound in test [3]: C[C@]1(O)C[C@@H](c2nc(-c3ccc4ccc(-c5ccccc5)nc4c3)c3c(N)nccn32)C1 [Linsitinib] + O=C(CCCCCCC(=O)Nc1ccccc1)NO [Vorinostat] (partner 1 µM)
The method in brief:
as §1

Compound in test [4]: Cc1ccc(C(=O)N(CCCN)[C@@H](c2nc3cc(Cl)ccc3c(=O)n2Cc2ccccc2)C(C)C)cc1 [Ispinesib] + Nc1nc2[nH]cc(CCc3ccc(C(=O)N[C@@H](CCC(=O)O)C(=O)O)cc3)c2c(=O)[nH]1 [Pemetrexed] (partner 0.2 µM)
In short, it runs like this: as §1

With NCI-H3122, the relative viability in test [1] (0.001 µM) stood at 1.09; in test [1] (0.003162 µM), 1.06; in test [1] (0.01 µM), 1.01; in test [1] (0.03162 µM) it was 0.779; in test [1] (0.1 µM) it was 0.172; in test [2] (first compound 0.01 µM), 1.02. For the same cell line, the relative viability worked out at 1.05 in test [2] (first compound 0.03162 µM); 1.04 in test [2] (first compound 0.1 µM); 1.02 in test [2] (first compound 0.3162 µM); 1.08 in test [2] (first compound 1 µM); 0.966 in test [3] (first compound 0.01 µM); 0.921 in test [3] (first compound 0.03162 µM). Further, the relative viability in test [3] (first compound 0.1 µM) was 0.98; in test [3] (first compound 1 µM) it was 0.702; in test [4] (first compound 0.001 µM), 0.196; in test [4] (first compound 0.003162 µM), 0.221; in test [4] (first compound 0.01 µM) it was 0.198; in test [4] (first compound 0.03162 µM), 0.217. The relative viability in test [4] (first compound 0.1 µM) worked out at 0.107.

Consider NCI-H838, for which the relative viability in test [1] (0.001 µM) came to 1.05; in test [1] (0.003162 µM), 1.03; in test [1] (0.01 µM), 1.08; in test [1] (0.03162 µM) it was 0.747; in test [1] (0.1 µM), 0.343; in test [2] (first compound 0.01 µM) it was 1.14. The relative viability in test [2] (first compound 0.03162 µM) was 1.12; in test [2] (first compound 0.1 µM), 1.21; in test [2] (first compound 0.3162 µM), 0.875; in test [2] (first compound 1 µM), 0.986; in test [3] (first compound 0.01 µM), 0.704; in test [3] (first compound 0.03162 µM), 0.645. Further, the relative viability worked out at 0.652 in test [3] (first compound 0.1 µM); 0.517 in test [3] (first compound 0.3162 µM); 0.545 in test [3] (first compound 1 µM); 0.255 in test [4] (first compound 0.001 µM); 0.248 in test [4] (first compound 0.003162 µM); 0.248 in test [4] (first compound 0.01 µM). For the same cell line, the relative viability in test [4] (first compound 0.03162 µM) worked out at 0.252; in test [4] (first compound 0.1 µM) it was 0.148.

For the cell line NCI-H1755, the relative viability in test [1] (0.001 µM) is 0.972; in test [1] (0.003162 µM), 1.1; in test [1] (0.01 µM), 1.1; in test [1] (0.03162 µM), 0.745; in test [1] (0.1 µM) it was 0.351; in test [2] (first compound 0.01 µM) it was 0.974. Further, the relative viability in test [2] (first compound 0.03162 µM) was found to be 1.04; in test [2] (first compound 0.1 µM) it was 0.986; in test [2] (first compound 0.3162 µM) it was 0.839; in test [2] (first compound 1 µM), 0.905; in test [3] (first compound 0.01 µM), 0.741; in test [3] (first compound 0.03162 µM) it was 0.773. Also, the relative viability in test [3] (first compound 0.1 µM) was 0.821; in test [3] (first compound 0.3162 µM) it was 0.58; in test [3] (first compound 1 µM), 0.727; in test [4] (first compound 0.001 µM) it was 0.486; in test [4] (first compound 0.003162 µM), 0.439; in test [4] (first compound 0.01 µM), 0.435. Moreover, the relative viability in test [4] (first compound 0.03162 µM) turned out to be 0.496; in test [4] (first compound 0.1 µM), 0.325.

On to HCC-15, for which the relative viability in test [1] (0.001 µM) stood at 1.08; in test [1] (0.003162 µM) it was 1.07; in test [1] (0.01 µM), 1.09; in test [1] (0.03162 µM) it was 0.473; in test [1] (0.1 µM), 0.197; in test [2] (first compound 0.01 µM), 0.657. For the same cell line, the relative viability was 0.698 in test [2] (first compound 0.03162 µM); 0.693 in test [2] (first compound 0.1 µM); 0.489 in test [2] (first compound 0.3162 µM); 0.62 in test [2] (first compound 1 µM); 0.822 in test [3] (first compound 0.01 µM); 0.752 in test [3] (first compound 0.03162 µM). Besides, the relative viability in test [3] (first compound 0.1 µM) came to 0.763; in test [3] (first compound 0.3162 µM), 0.633; in test [3] (first compound 1 µM) it was 0.705; in test [4] (first compound 0.001 µM), 0.241; in test [4] (first compound 0.003162 µM), 0.258; in test [4] (first compound 0.01 µM) it was 0.23. Further, the relative viability is 0.221 in test [4] (first compound 0.03162 µM) and 0.144 in test [4] (first compound 0.1 µM).
